Data: ChEMBL document CHEMBL5223069, “Design, synthesis and biological evaluation of vortioxetine derivatives as new COX-1/2 inhibitors in human monocytes” (Bioorg Med Chem, 2020)
Active and inactive are the calls of the source. The calls are words filed in the database; no cut-off is given here.

How the values were obtained:
Monocyte [1] = assay: Induction of IL-1beta mRNA expression in human monocytes at 7.5 nM incubated for 1 hr by RT-PCR analysis; type: functional, cell-based
Monocyte [2] = assay: Modulation of LPS-induced IL-1beta mRNA expression in human monocytes at 7.5 nM preincubated for 1 hr followed by LPS stimulation and measured after 30 mins by RT-PCR analysis; type: functional, cell-based; details: time 1.5 hrs
Monocyte [3] = assay: Induction of TNF-alpha mRNA expression in human monocytes at 7.5 nM incubated for 1 hr by RT-PCR analysis; type: functional, cell-based
Monocyte [4] = assay: Inhibition of PMA-induced oxidative burst in human monocytes at 0.1 to 50 nM preincubated for 1 hr followed by PMA stimulation and measured after 30 mins relative to control; type: functional; details: dose 0.1-50 nM, time 1.5 hrs
Monocyte [5] = assay: Cytotoxicity against human monocytes assessed as reduction in cell viability at 0.01 to 10 uM incubated for 1 to 6 hrs by MTT assay; type: toxicity, cell-based; details: dose lower 0.01 µM, time lower 1 hrs, dose upper 10 µM, time upper 6 hrs
Monocyte [6] = assay: Induction of superoxide anion production in human monocytes assessed as increase in reduced cytochrome C level at 0.0025 to 1 uM incubated for 1 hr; type: functional, cell-based; details: dose 0.0025-1 µM
Monocyte [7] = assay: Modulation of COX-1 mRNA expression in human monocytes at 7.5 nM incubated for 1 hr by RT-PCR analysis; type: functional, cell-based
Monocyte [8] = assay: Modulation of LPS-induced IL-6 mRNA expression in human monocytes at 7.5 nM preincubated for 1 hr followed by LPS stimulation and measured after 30 mins by RT-PCR analysis; type: functional, cell-based; details: time 1.5 hrs
[9] = biological target: T1, Prostaglandin G/H synthase 2 (Homo sapiens) (UniProt P35354); details: dose 0.1-50 nM
T1 sequence (whole entry): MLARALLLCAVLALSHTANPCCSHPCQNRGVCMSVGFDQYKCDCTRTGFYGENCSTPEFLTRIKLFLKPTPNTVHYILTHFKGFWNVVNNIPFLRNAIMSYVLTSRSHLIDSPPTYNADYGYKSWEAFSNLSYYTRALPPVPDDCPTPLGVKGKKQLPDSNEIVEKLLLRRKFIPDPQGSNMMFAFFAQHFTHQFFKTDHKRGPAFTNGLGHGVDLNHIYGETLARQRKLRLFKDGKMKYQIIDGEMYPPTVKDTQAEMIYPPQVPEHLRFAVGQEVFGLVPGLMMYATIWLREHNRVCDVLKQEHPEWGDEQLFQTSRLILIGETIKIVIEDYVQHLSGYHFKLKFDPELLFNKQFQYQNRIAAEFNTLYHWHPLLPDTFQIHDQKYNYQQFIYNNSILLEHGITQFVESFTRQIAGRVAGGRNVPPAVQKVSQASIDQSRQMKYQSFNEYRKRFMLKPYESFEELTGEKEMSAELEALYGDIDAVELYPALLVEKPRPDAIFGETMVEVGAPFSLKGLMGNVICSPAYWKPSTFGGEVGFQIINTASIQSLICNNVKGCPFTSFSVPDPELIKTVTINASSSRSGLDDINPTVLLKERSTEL
Description: Inhibition of human COX-2 at 0.1 to 50 nM by spectrophotometer analysis

Monocyte [10] = assay: Modulation of LPS-induced TNF-alpha mRNA expression in human monocytes at 7.5 nM preincubated for 1 hr followed by LPS stimulation and measured after 30 mins by RT-PCR analysis; type: functional, cell-based; details: time 1.5 hrs
[11] = biological target: Prostaglandin G/H synthase 1 (Homo sapiens) (UniProt P23219); assay: Inhibition of human COX-1 at 0.1 to 50 nM by spectrophotometer analysis; details: dose 0.1-50 nM
Prostaglandin G/H synthase 1 (Homo sapiens), sequence (P23219 whole entry): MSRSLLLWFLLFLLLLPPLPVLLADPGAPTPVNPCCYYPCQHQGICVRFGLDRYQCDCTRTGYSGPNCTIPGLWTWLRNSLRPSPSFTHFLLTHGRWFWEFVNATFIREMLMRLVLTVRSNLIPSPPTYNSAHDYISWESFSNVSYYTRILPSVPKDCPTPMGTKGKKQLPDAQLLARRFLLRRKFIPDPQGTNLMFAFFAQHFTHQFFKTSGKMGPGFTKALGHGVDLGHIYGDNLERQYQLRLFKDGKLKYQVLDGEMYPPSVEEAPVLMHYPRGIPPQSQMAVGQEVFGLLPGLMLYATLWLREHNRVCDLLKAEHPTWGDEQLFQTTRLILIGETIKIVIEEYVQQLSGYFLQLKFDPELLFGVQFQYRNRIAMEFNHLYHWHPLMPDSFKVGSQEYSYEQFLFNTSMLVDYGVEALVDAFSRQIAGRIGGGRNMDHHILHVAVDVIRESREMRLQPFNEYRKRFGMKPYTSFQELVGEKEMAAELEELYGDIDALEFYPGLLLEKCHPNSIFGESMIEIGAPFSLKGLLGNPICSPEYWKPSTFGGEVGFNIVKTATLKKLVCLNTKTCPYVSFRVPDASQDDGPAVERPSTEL

Monocyte [12] = assay: Induction of IL-6 mRNA expression in human monocytes at 7.5 nM incubated for 1 hr by RT-PCR analysis; type: functional, cell-based
Monocyte [13] = assay: Inhibition of PMA-induced oxidative burst in human monocytes preincubated for 1 hr followed by PMA stimulation and measured after 30 mins; type: functional, cell-based
Monocyte [14] = assay: Modulation of LPS-induced IL-10 mRNA expression in human monocytes at 7.5 nM preincubated for 1 hr followed by LPS stimulation and measured after 30 mins by RT-PCR analysis; type: functional, cell-based; details: time 1.5 hrs
Monocyte [15] = assay: Induction of IL-10 mRNA expression in human monocytes at 7.5 nM incubated for 1 hr by RT-PCR analysis; type: functional, cell-based
Monocyte [16] = assay: Downregulation of PMA-induced TNF-alpha mRNA expression in human monocytes at 7.5 nM preincubated for 1 hr followed by PMA stimulation and measured after 30 mins by RT-PCR analysis; type: functional, cell-based; details: time 1.5 hrs
Monocyte [17] = assay: Inhibition of PMA-induced IL-1beta mRNA expression in human monocytes at 7.5 nM preincubated for 1 hr followed by PMA stimulation and measured after 30 mins by RT-PCR analysis; type: functional, cell-based; details: time 1.5 hrs
Monocyte [18] = assay: Modulation of LPS-induced TNF-alpha mRNA expression in human monocytes at 1 uM preincubated for 1 hr followed by LPS stimulation and measured after 30 mins by RT-PCR analysis; type: functional, cell-based; details: time 1.5 hrs
Monocyte [19] = assay: Induction of IL-10 mRNA expression in human monocytes at 1 uM incubated for 1 hr by RT-PCR analysis; type: functional, cell-based
Monocyte [20] = assay: Induction of TNF-alpha mRNA expression in human monocytes at 1 uM incubated for 1 hr by RT-PCR analysis; type: functional, cell-based
Monocyte [21] = assay: Modulation of LPS-induced IL-1beta mRNA expression in human monocytes at 1 uM preincubated for 1 hr followed by LPS stimulation and measured after 30 mins by RT-PCR analysis; type: functional, cell-based; details: time 1.5 hrs
Monocyte [22] = assay: Modulation of LPS-induced IL-10 mRNA expression in human monocytes at 1 uM preincubated for 1 hr followed by LPS stimulation and measured after 30 mins by RT-PCR analysis; type: functional, cell-based; details: time 1.5 hrs
Monocyte [23] = assay: Modulation of LPS-induced IL-6 mRNA expression in human monocytes at 1 uM preincubated for 1 hr followed by LPS stimulation and measured after 30 mins by RT-PCR analysis; type: functional, cell-based; details: time 1.5 hrs
Monocyte [24] = assay: Induction of IL-1beta mRNA expression in human monocytes at 1 uM incubated for 1 hr by RT-PCR analysis; type: functional, cell-based
Monocyte [25] = assay: Induction of IL-6 mRNA expression in human monocytes at 1 uM incubated for 1 hr by RT-PCR analysis; type: functional, cell-based
Monocyte [26] = assay: Inhibition of PMA-induced COX-2 expression in human monocytes at 7.5 nM preincubated for 1 hr followed by PMA stimulation and measured after 30 mins by RT-PCR analysis; type: functional, cell-based; details: time 1.5 hrs
Monocyte [27] = assay: Downregulation of PMA-induced IL-6 mRNA expression in human monocytes at 7.5 nM preincubated for 1 hr followed by PMA stimulation and measured after 30 mins by RT-PCR analysis; type: functional, cell-based; details: time 1.5 hrs

| inhibition [11] | IC50 (Monocyte [13]) | SMILES | Activity (Monocyte [1]) | Activity (Monocyte [2]) | Activity (Monocyte [3]) | inhibition (INH) (Monocyte [4]) | Activity (Monocyte [5]) | Activity (Monocyte [6]) | Activity (Monocyte [7]) | Activity (Monocyte [8]) | Activity (Monocyte [10]) | Activity (Monocyte [12]) | Activity (Monocyte [14]) | Activity (Monocyte [15]) | further results |
| --- | --- | --- | --- | --- | --- | --- | --- | --- | --- | --- | --- | --- | --- | --- | --- |
| Active | 2.7 nM | Cc1ccc(Sc2ccccc2N2CCN(CC3CCCC3)CC2)c(C)c1 | inactive | inactive | inactive | 70% | Non-Toxic | inactive | inactive | inactive | inactive | inactive | inactive | inactive | inhibition [9]: Active |
| Active | 6.3 nM | Cc1ccc(Sc2ccccc2N2CCN(Cc3ccccc3C(F)(F)F)CC2)c(C)c1 | inactive | inactive | inactive | 80% | Non-Toxic | inactive | inactive | inactive | inactive | inactive | inactive | inactive | – |
| – | – | CC(=O)N1CCN(c2ccccc2Sc2ccc(C)cc2C)CC1 | – | – | – | – | Non-Toxic | inactive | – | – | – | – | – | – | – |
| – | 2.9 nM | Cc1ccc(Sc2ccccc2N2CCNCC2)c(C)c1 [VORTIOXETINE] | inactive | inactive | inactive | 90% | Non-Toxic | inactive | inactive | inactive | inactive | inactive | inactive | inactive | Activity (Monocyte [16]): Active; inhibition (Monocyte [17]): Active |
| – | – | Cc1ccc(Sc2ccccc2N2CCN(CCO)CC2)c(C)c1 | – | – | – | – | Non-Toxic | inactive | – | – | – | – | – | – | – |
| – | – | Cc1ccc(S(=O)(=O)N2CCN(c3ccccc3Sc3ccc(C)cc3C)CC2)cc1 | – | – | – | – | Non-Toxic | inactive | – | – | – | – | – | – | – |
| – | – | Cc1ccc(Sc2ccccc2N2CCN(S(C)(=O)=O)CC2)c(C)c1 | – | – | – | – | Non-Toxic | inactive | – | – | – | – | – | – | – |
| – | – | CCN1CCN(c2ccccc2Sc2ccc(C)cc2C)CC1 | – | – | – | – | Non-Toxic | inactive | – | – | – | – | – | – | – |
| – | – | COc1ccc2c(c1)c(CC(=O)O)c(C)n2C(=O)c1ccc(Cl)cc1 | – | – | – | – | – | – | – | – | – | – | – | – | Activity (Monocyte [18]): inactive; Activity (Monocyte [19]): inactive; Activity (Monocyte [20]): inactive; Activity (Monocyte [21]): inactive; Activity (Monocyte [22]): inactive; Activity (Monocyte [23]): inactive; Activity (Monocyte [24]): inactive; Activity (Monocyte [25]): inactive |
| – | – | CS(=O)(=O)c1ccc(C2=C(c3ccccc3)C(=O)OC2)cc1 | – | – | – | – | – | – | – | – | – | – | – | – | Activity (Monocyte [18]): inactive; Activity (Monocyte [19]): inactive; Activity (Monocyte [20]): inactive; Activity (Monocyte [21]): inactive; Activity (Monocyte [22]): inactive; Activity (Monocyte [23]): inactive; inhibition [9]: Active; Activity (Monocyte [24]): inactive; Activity (Monocyte [25]): inactive |
| Active | 6.5 nM | Cc1ccc(Sc2ccccc2N2CCN(Cc3ccccc3F)CC2)c(C)c1 | inactive | inactive | inactive | 70% | Non-Toxic | inactive | inactive | inactive | inactive | inactive | Active | inactive | inhibition [9]: Active; inhibition (Monocyte [26]): Active; Activity (Monocyte [27]): Active |
| – | – | Cc1ccc(Sc2ccccc2N2CCN(Cc3ccc(Cl)cc3)CC2)c(C)c1 | – | – | – | – | Non-Toxic | inactive | – | – | – | – | – | – | – |
| Active | 0.35 nM | Cc1ccc(Sc2ccccc2N2CCN(CC(=O)O)CC2)c(C)c1 | inactive | inactive | inactive | 90% | Non-Toxic | inactive | inactive | inactive | inactive | inactive | inactive | Active | – |
